Results from ChEMBL document CHEMBL5523721, “Derivatives of D(-) glutamine-based MMP-2 inhibitors as an effective remedy for the management of chronic myeloid leukemia-Part-I: Synthesis, biological screening and in silico binding interaction analysis” (Eur J Med Chem, 2024).
Values belong to the compound of their own block, whether it stands above or below them. The source made the active and inactive calls. The calls are words filed in the database; no cut-off is given here.

What was measured:
[1] = tested on: A549; test: cells; settings: Homo sapiens, A549, 72 h
Description: Antiproliferative activity against human A549 cells incubated for 72 hrs by MTT assay

[2] = tested on: HT-1080; test: Antiproliferative activity against human HT-1080 cells incubated for 72 hrs by MTT assay; settings: HT-1080, 72 h
[3] = tested on: U-87 MG; test: Antiproliferative activity against human U-87 MG cells incubated for 72 hrs by MTT assay
[4] = Cytotoxicity against HEK293 cells incubated for 72 hrs by MTT assay; type: toxicity, cell-based; settings: human
[5] = tested on: K562; test: Antiproliferative activity against human K562 cells incubated for 72 hrs by PrestoBlue assay; settings: K562, 72 h
[6] = biological target: Neutrophil collagenase (Homo sapiens, UniProt P22894); test: Inhibition of MMP-8 (unknown origin)
[7] = tested on: ACHN; test: Antiangiogenic activity in human ACHN cells assessed as reduction in branch length at 26.764 uM incubated for 72 hrs by microscopic analysis; type: functional, cell-based
[8] = tested on: K562; test: Induction of cell cycle arrest in human K562 cells assessed as cell population at G1 phase at 4.919 uM incubated for 72 hrs by propidium iodide staining based flow cytometry analysis (reference value: 44.4 +/- 1.5%); type: functional
[9] = Downregulation of MMP-2 expression in human K562 cells at 4.919 uM incubated for 48 hrs by flow cytometry analysis; type: functional
[10] = tested on: ACHN; test: Antiangiogenic activity in human ACHN cells assessed as reduction in total segment length at 26.764 uM incubated for 72 hrs by microscopic analysis; type: functional, cell-based
[11] = tested on: K562; test: Induction of cell cycle arrest in human K562 cells assessed as cell population at sub-G1 phase at 4.919 uM incubated for 72 hrs by propidium iodide staining based flow cytometry analysis; type: functional
[12] = tested on: ACHN; test: Antiproliferative activity against human ACHN cells incubated for 72 hrs by MTT assay
[13] = biological target: Matrix metalloproteinase-9 (Homo sapiens, UniProt P14780); test: Inhibition of MMP-9 (unknown origin) using chromogenic substrate incubated for 1 hr by microplate photometer analysis
[14] = tested on: K562; test: Induction of apoptosis in human K562 cells assessed as total apoptotic cells at 4.919 uM incubated for 72 hrs by Annexin-V/PI staining based flow cytometry analysis (reference value: 2.6 +/- 1.1%); type: functional
[15] = tested on: ACHN; test: Antiangiogenic activity in human ACHN cells assessed as reduction in mesh length at 26.764 uM incubated for 72 hrs by microscopic analysis; type: functional, cell-based
[16] = tested on: K562; test: Induction of cell cycle arrest in human K562 cells assessed as cell population at S phase at 4.919 uM incubated for 72 hrs by propidium iodide staining based flow cytometry analysis (reference value: 32.7 +/- 3.1%); type: functional
[17] = tested on: K562; test: Induction of cell cycle arrest in human K562 cells assessed as cell population at G2/M phase at 4.919 uM incubated for 72 hrs by propidium iodide staining based flow cytometry analysis (reference value: 22.9 +/- 1.9%); type: functional
[18] = biological target: Macrophage metalloelastase (Homo sapiens, UniProt P39900); test: Inhibition of MMP-12 (unknown origin)
[19] = biological target: 72 kDa type IV collagenase (Homo sapiens, UniProt P08253); test: Inhibition of MMP-2 (unknown origin) using chromogenic substrate incubated for 1 hr by microplate photometer analysis
[20] = tested on: ACHN; test: Antiangiogenic activity in human ACHN cells assessed as reduction in total tube length at 26.764 uM incubated for 72 hrs by microscopic analysis; type: functional, cell-based
[21] = tested on: K562; test: Induction of cell cycle arrest in human K562 cells assessed as cell population at sub-G1 phase at 1.992 uM incubated for 72 hrs by propidium iodide staining based flow cytometry analysis; type: functional
[22] = tested on: K562; test: Induction of apoptosis in human K562 cells assessed as appearance of nucleus with fragmented DNA at 1.992 uM after 72 hrs by AO/EB staining based fluorescence microscopic analysis; type: functional, cell-based
[23] = tested on: K562; test: Induction of apoptosis in human K562 cells assessed as appearance of apoptotic cells at 1.992 uM after 24 to 72 hrs by AO/EB staining based fluorescence microscopic analysis; type: functional, cell-based; settings: time 24-72 hrs
[24] = tested on: ACHN; test: Antiangiogenic activity in human ACHN cells assessed as reduction in total segment length at 17.157 uM incubated for 72 hrs by microscopic analysis; type: functional, cell-based
[25] = Downregulation of MMP-2 expression in human K562 cells at 1.992 uM incubated for 48 hrs by flow cytometry analysis; type: functional
[26] = tested on: K562; test: Induction of apoptosis in human K562 cells assessed as increase in late apoptotic cells at 1.992 uM after 48 hrs by AO/EB staining based fluorescence microscopic analysis; type: functional, cell-based
[27] = tested on: K562; test: Induction of cell cycle arrest in human K562 cells assessed as cell population at G1 phase at 1.992 uM incubated for 72 hrs by propidium iodide staining based flow cytometry analysis (reference value: 44.4 +/- 1.5%); type: functional
[28] = tested on: K562; test: Induction of cell cycle arrest in human K562 cells assessed as cell population at S phase at 1.992 uM incubated for 72 hrs by propidium iodide staining based flow cytometry analysis (reference value: 32.7 +/- 3.1%); type: functional
[29] = tested on: K562; test: Induction of apoptosis in human K562 cells assessed as increase in early apoptotic cells at 1.992 uM after 24 hrs by AO/EB staining based fluorescence microscopic analysis; type: functional, cell-based
[30] = tested on: K562; test: Induction of cell cycle arrest in human K562 cells assessed as cell population at G2/M phase at 1.992 uM incubated for 72 hrs by propidium iodide staining based flow cytometry analysis (reference value: 22.9 +/- 1.9%); type: functional
[31] = tested on: K562; test: Induction of apoptosis in human K562 cells assessed as increase in necrotic cells at 1.992 uM after 72 hrs by AO/EB staining based fluorescence microscopic analysis; type: functional, cell-based
[32] = tested on: K562; test: Induction of apoptosis in human K562 cells at 1.992 uM by AO/EB staining based fluorescence microscopic analysis; type: functional, cell-based; settings: time 24-72 hrs, TDE = time-dependent effect
[33] = tested on: K562; test: Induction of apoptosis in human K562 cells assessed as increase in late apoptotic dead cells at 1.992 uM after 72 hrs by AO/EB staining based fluorescence microscopic analysis; type: functional, cell-based
[34] = tested on: K562; test: Induction of apoptosis in human K562 cells assessed as total apoptotic cells at 1.992 uM incubated for 72 hrs by Annexin-V/PI staining based flow cytometry analysis (reference value: 2.6 +/- 1.1%); type: functional
[35] = tested on: ACHN; test: Antiangiogenic activity in human ACHN cells assessed as reduction in total tube length at 17.157 uM incubated for 72 hrs by microscopic analysis; type: functional, cell-based
[36] = tested on: K562; test: Induction of apoptosis in human K562 cells assessed as morphological changes at 1.992 uM after 72 hrs by AO/EB staining based fluorescence microscopic analysis; type: functional, cell-based
[37] = tested on: ACHN; test: Antiangiogenic activity in human ACHN cells assessed as reduction in branch length at 17.157 uM incubated for 72 hrs by microscopic analysis; type: functional, cell-based
[38] = tested on: ACHN; test: Antiangiogenic activity in human ACHN cells assessed as reduction in mesh length at 17.157 uM incubated for 72 hrs by microscopic analysis; type: functional, cell-based
[39] = tested on: K562; test: Antiproliferative activity against human K562 cells; type: functional, cell-based

Neutrophil collagenase, sequence (P22894 whole entry): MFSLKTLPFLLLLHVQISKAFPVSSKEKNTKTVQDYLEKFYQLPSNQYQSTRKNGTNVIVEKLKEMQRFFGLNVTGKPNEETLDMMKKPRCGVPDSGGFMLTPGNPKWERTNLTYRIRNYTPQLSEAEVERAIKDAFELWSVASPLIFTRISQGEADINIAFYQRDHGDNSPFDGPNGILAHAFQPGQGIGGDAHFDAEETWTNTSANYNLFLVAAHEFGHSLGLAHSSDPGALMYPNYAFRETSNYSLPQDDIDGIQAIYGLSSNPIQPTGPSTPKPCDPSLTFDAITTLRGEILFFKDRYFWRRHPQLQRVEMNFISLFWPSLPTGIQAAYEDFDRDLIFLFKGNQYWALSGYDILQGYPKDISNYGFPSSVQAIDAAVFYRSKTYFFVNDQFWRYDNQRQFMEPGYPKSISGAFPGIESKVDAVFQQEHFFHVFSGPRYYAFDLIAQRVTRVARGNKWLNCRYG
72 kDa type IV collagenase, sequence (P08253 whole entry): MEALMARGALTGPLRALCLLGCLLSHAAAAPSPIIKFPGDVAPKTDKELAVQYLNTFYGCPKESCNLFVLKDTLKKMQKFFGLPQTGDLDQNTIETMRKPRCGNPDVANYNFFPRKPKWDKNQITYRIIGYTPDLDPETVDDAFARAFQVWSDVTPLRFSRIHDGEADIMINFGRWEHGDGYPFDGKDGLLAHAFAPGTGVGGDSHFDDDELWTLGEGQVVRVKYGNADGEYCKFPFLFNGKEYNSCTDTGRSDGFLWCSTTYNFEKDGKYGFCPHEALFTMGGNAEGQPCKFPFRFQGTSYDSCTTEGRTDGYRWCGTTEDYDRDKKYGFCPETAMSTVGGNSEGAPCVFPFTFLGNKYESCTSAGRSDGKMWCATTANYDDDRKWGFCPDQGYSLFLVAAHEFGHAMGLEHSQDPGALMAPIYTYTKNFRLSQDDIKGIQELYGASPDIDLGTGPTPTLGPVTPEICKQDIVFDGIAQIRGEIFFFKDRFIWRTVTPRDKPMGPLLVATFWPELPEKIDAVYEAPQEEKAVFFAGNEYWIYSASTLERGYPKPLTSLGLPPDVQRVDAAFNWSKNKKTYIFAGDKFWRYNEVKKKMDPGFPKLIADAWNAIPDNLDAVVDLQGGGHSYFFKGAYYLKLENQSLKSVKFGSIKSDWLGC
Matrix metalloproteinase-9, sequence (P14780 whole entry): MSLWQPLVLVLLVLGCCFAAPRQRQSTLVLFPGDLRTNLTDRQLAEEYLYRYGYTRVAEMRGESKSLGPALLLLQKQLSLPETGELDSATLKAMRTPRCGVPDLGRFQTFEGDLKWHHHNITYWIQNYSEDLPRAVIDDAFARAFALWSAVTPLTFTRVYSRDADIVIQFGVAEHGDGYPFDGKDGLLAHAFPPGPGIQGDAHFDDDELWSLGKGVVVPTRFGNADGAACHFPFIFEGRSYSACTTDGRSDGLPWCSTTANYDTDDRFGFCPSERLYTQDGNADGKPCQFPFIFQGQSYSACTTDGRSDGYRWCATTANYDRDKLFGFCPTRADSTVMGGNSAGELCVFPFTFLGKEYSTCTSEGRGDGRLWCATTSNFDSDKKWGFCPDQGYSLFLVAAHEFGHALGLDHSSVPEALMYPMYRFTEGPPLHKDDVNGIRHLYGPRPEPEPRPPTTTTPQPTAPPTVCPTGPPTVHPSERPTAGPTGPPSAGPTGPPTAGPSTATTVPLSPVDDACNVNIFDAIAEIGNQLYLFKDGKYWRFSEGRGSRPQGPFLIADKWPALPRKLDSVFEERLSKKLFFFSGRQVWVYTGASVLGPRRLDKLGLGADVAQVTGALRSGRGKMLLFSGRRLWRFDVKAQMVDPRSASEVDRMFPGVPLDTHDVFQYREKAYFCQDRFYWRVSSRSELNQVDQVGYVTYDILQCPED
Macrophage metalloelastase, sequence (P39900 whole entry): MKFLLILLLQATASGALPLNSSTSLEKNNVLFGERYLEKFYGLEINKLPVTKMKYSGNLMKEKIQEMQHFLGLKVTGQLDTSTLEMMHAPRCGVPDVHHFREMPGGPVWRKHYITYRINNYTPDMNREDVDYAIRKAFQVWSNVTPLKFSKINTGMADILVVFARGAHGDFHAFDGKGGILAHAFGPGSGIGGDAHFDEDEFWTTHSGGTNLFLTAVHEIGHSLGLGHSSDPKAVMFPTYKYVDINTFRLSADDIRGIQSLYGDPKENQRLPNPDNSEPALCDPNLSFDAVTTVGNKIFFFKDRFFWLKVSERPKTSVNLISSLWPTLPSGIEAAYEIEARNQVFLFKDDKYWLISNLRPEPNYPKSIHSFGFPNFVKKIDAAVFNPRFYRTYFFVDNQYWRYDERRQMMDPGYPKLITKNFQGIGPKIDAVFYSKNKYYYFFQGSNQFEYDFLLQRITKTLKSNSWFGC

Compound: CCCCNC(=O)CC[C@@H](NS(=O)(=O)c1ccc(C)cc1)C(=O)O
IC50 [1]: 19.5 µM
IC50 [2]: 25.9 µM
IC50 [3]: 16.8 µM
IC50 at 72 h [4]: 391 µM
IC50 [5]: 3.75 µM

Compound: Cc1ccc(S(=O)(=O)N[C@H](CCC(=O)NC(C)C)C(=O)O)cc1
IC50 [1]: 17.3 µM
IC50 [2]: 19.5 µM
IC50 [3]: 20.3 µM
IC50 at 72 h [4]: 347 µM
IC50 [5]: 4.24 µM

Compound: NC(=O)CC[C@@H](NS(=O)(=O)c1ccc([N+](=O)[O-])cc1)C(=O)O
IC50 [1]: 8.99 µM
IC50 [2]: 20.5 µM
IC50 [3]: 26.4 µM
IC50 at 72 h [4]: 173 µM
IC50 [5]: 9.73 µM

Compound: CCNC(=O)CC[C@@H](NS(=O)(=O)c1ccc([N+](=O)[O-])cc1)C(=O)O
IC50 [1]: 12.2 µM
IC50 [2]: 32.9 µM
IC50 [3]: 16.2 µM
IC50 at 72 h [4]: 145 µM
IC50 [5]: 7.76 µM

Compound: Cc1ccc(S(=O)(=O)N[C@H](CCC(=O)NCC(C)C)C(=O)O)cc1
IC50 [1]: 32.2 µM
IC50 [2]: 39.2 µM
IC50 [3]: 26.3 µM
IC50 [6]: > 2 µM
IC50 at 72 h [4]: 645 µM
IC50 [5]: 2.35 µM

Compound: CC(C)CNC(=O)CC[C@@H](NS(=O)(=O)c1ccc([N+](=O)[O-])cc1)C(=O)O
IC50 [1]: 10.8 µM
IC50 [2]: 16.2 µM
IC50 [3]: 38.5 µM
IC50 at 72 h [4]: 217 µM
IC50 [5]: 8.06 µM

Compound: CNC(=O)CC[C@@H](NS(=O)(=O)c1ccc([N+](=O)[O-])cc1)C(=O)O
IC50 [1]: 20.8 µM
IC50 [2]: 24.4 µM
IC50 [3]: 20.5 µM
IC50 at 72 h [4]: 417 µM
IC50 [5]: 5.69 µM

Compound: CC(C)NC(=O)CC[C@@H](NS(=O)(=O)c1ccc([N+](=O)[O-])cc1)C(=O)O
IC50 [1]: 10.6 µM
IC50 [2]: 43.5 µM
IC50 [3]: 37.5 µM
IC50 at 72 h [4]: 271 µM
IC50 [5]: 11 µM

Compound: CCCCCNC(=O)CC[C@@H](NS(=O)(=O)c1ccc(C)cc1)C(=O)O
IC50 [1]: 14.4 µM
IC50 [2]: 27.6 µM
IC50 [3]: 33.1 µM
IC50 at 72 h [4]: 408 µM
IC50 [5]: 8.37 µM

Compound: COc1ccc(S(=O)(=O)N(CC(=O)NO)CC(C)C)cc1
IC50 [1]: 13.5 µM
IC50 [5]: 4.77 µM

Compound: CCCCNC(=O)CC[C@@H](NS(=O)(=O)c1ccc([N+](=O)[O-])cc1)C(=O)O
IC50 [1]: 18.4 µM
IC50 [39]: 5.26 µM
IC50 [2]: 37.6 µM
IC50 [3]: 29 µM
IC50 [6]: > 2 µM
IC50 [13]: 0.833 µM
IC50 at 72 h [4]: 368 µM
IC50 [19]: 0.456 µM

Compound: CCCCCNC(=O)CC[C@@H](NS(=O)(=O)c1ccc([N+](=O)[O-])cc1)C(=O)O
IC50 [1]: 12.7 µM
IC50 [39]: 6.79 µM
IC50 [2]: 20.7 µM
IC50 [3]: 14.2 µM
IC50 at 72 h [4]: 254 µM

Further compounds by falling IC50 [1], results first:

IC50 [1]: 8.98 µM
IC50 [2]: 18.3 µM
IC50 [3]: 19.9 µM
IC50 [5]: 2.27 µM
Compound: Cc1ccc(S(=O)(=O)N[C@H](CCC(N)=O)C(=O)O)cc1
IC50 at 72 h [4]: 279 µM

IC50 [1]: 5.68 µM
IC50 [2]: 57.5 µM
IC50 [3]: 17.9 µM
IC50 [6]: > 2 µM
IC50 [12]: 26.8 µM
IC50 [13]: 0.561 µM
IC50 [18]: 1.72 µM
IC50 [5]: 4.91 µM
IC50 [19]: 0.273 µM
Compound: O=C(CC[C@@H](NS(=O)(=O)c1ccc([N+](=O)[O-])cc1)C(=O)O)NCc1ccccc1
Activity [7]: Active
Activity [8]: 49%
Activity [9]: 19.6%
Activity [10]: Active
Activity [11]: 4.6%
Activity [14]: 26.7%
IC50 at 72 h [4]: 114 µM
Activity [15]: Active
Activity [16]: 33.6%
Activity [17]: 17.4%
Activity [20]: Active

IC50 [1]: 5.14 µM
IC50 [2]: 25.2 µM
IC50 [3]: 28.9 µM
IC50 [5]: 2.37 µM
Compound: CNC(=O)CC[C@@H](NS(=O)(=O)c1ccc(C)cc1)C(=O)O
IC50 at 72 h [4]: 203 µM

IC50 [1]: 4.82 µM
IC50 [2]: 16.5 µM
IC50 [3]: 32.3 µM
IC50 [5]: 2.54 µM
Compound: CCNC(=O)CC[C@@H](NS(=O)(=O)c1ccc(C)cc1)C(=O)O
IC50 at 72 h [4]: 491 µM

IC50 [1]: 3.57 µM
IC50 [2]: 19.7 µM
IC50 [3]: 17.5 µM
IC50 [6]: > 2 µM
IC50 [12]: 17.2 µM
IC50 [18]: 1.24 µM
IC50 [5]: 1.99 µM
Compound: Cc1ccc(S(=O)(=O)N[C@H](CCC(=O)NCc2ccccc2)C(=O)O)cc1
Activity [21]: 12%
Activity [22]: inactive
Activity [23]: Active
Activity [24]: Active
Activity [25]: 20.1%
Activity [26]: Active
Activity [27]: 56.4%
Activity [28]: 29.1%
Activity [29]: Active
Activity [30]: 14.7%
Activity [31]: Active
IC50 at 72 h [4]: 293 µM
Activity [32]: Tde
Activity [33]: Active
Activity [34]: 39.7%
Activity [35]: Active
Activity [36]: inactive
Activity [37]: Active
Activity [38]: Active
